≈ marks a conversion by molar mass, not a printed value. Where “and” joins values, the source holds several entries; their conditions need not be identical. Identical values can stand only once.
How the values were obtained:
[1] = human, microsomes
[2] = DNDI: Lipophilicity (gLogD) at pH 3; details: buffer, pH 3, logD
[3] = DNDI: Lipophilicity (gLogD) at pH 7.4; details: buffer, pH 7.4, logD
[4] = in vitro; details: human, microsomes
[5] = DNDI: Solubility in 0.01M HCl at pH 2 determined by nephelometry; details: 0.01M HCl, pH 2, Kinetic
[6] = DNDI: Solubility in phosphate buffer at pH 6.5 determined by nephelometry; details: phosphate buffer, pH 6.5, Kinetic
[7] = human, microsomes; remark: listed apart in the source
[8] = human, microsomes; remark: listed apart in the source
[9] = in vitro; details: human, microsomes, t (1 / 2)
[10] = in vitro; details: mouse, microsomes
[11] = tested on: Trypanosoma cruzi; experiment: (§1) DNDI: Chagas in Vitro; format: functional, organism-based, Tulahuen C4 (LacZ)
[12] = DNDI: Metabolism; format: ADME, Microsome; details: rat, microsomes
[13] = in vitro; details: rat, microsomes
[14] = target: Cytochrome P450 2C9 (Homo sapiens, UniProt P11712)
[15] = target: Cytochrome P450 2C19 (Homo sapiens, UniProt P33261)
[16] = DNDI: Permeability in CACO-2 cells at pH 7.4 (A to B); format: ADME, cell-based; details: human, Caco-2, pH 7.4
[17] = tested on: Trypanosoma cruzi; experiment: DNDI: Chagas in vivo at 20 mg/kg, 20 days 2x; format: functional, Tulahuen Swiss po
[18] = tested on: Trypanosoma cruzi; experiment: as §1; format: functional, Tulahuen C4 (LacZ)
[19] = in vitro; details: mouse, microsomes; remark: listed apart in the source
[20] = DNDI: Cytotoxicity in vitro, against rat skeletal myoblast (L-6) cells; details: L-6 cells (skeletal myoblasts), IC50
[21] = DNDI: Protein binding in mouse plasma
[22] = DNDI: Protein binding in rat plasma; format: ADME, cell-free; details: read-out: % bound (converted)
[23] = tested on: Trypanosoma brucei rhodesiense; experiment: (§2) DNDI: HAT in Vitro; format: functional, organism-based, ATCC 30027
[24] = in vitro; details: rat, microsomes; remark: listed apart in the source
[25] = target: T1, Cytochrome P450 1A2 (Homo sapiens, UniProt P05177)
T1 sequence (P05177 whole entry): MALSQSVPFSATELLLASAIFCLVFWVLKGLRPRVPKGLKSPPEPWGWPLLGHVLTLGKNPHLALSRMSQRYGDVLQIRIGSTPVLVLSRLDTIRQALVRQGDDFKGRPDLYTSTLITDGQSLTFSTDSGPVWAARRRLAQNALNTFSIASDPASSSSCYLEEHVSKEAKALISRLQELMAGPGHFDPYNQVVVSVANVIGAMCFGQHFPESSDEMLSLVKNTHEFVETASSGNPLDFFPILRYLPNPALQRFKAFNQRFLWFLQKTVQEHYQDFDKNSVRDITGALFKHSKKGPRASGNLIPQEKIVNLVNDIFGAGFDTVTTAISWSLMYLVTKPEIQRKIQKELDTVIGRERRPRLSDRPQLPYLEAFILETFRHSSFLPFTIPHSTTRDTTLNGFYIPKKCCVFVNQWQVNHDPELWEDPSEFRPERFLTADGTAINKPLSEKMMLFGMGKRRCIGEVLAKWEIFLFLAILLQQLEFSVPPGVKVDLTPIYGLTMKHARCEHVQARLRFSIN

[26] = target: Cytochrome P450 2D6 (Homo sapiens, UniProt P10635)
[27] = in vitro; details: rat, hepatocytes
[28] = tested on: Leishmania infantum; experiment: DNDI: Leish (macro) in Vitro; format: functional, organism-based, MHOM/MA(BE)/67
[29] = tested on: Trypanosoma brucei brucei; experiment: DNDI: HAT in vivo at 50 mg/kg, 4 adm days; format: functional, EATRO 110 po
[30] = tested on: Trypanosoma brucei brucei; experiment: as §2; format: functional, organism-based; details: SBRI 427
[31] = tested on: Leishmania infantum; experiment: DNDI: Leish In Vivo - % inhibition and MSD at 50 mg/kg, 5 days 2x; format: functional, MHOM/MA(BE)/67 Hamster-Early curative model po
[32] = in vitro; details: rat, hepatocytes; remark: listed apart in the source
[33] = tested on: Trypanosoma cruzi; experiment: DNDI: Chagas in vivo at 50 mg/kg, 20 days 1x; format: functional, Tulahuen Swiss po
[34] = in vitro; details: rat, microsomes; remark: listed apart in the source
[35] = in vitro; details: human, microsomes, EH
[36] = tested on: Trypanosoma cruzi; experiment: DNDI: Chagas in vivo at 20 mg/kg, 20 days 1x; format: functional, Tulahuen Swiss po
[37] = in vitro; details: mouse, microsomes; remark: listed apart in the source
[38] = target: Cytochrome P450 3A4 (Homo sapiens, UniProt P08684); experiment: DNDI: Human CYP3A4 inhibition determined using 6b-hydroxylation of testosterone
[39] = (§3) DNDI: Stability, 4 hour; format: ADME, tissue-based; details: mouse, blood
[40] = as §3; format: ADME, cell-free; details: mouse, plasma
[41] = Trypanosoma cruzi, Tulahuen C4 (LacZ)

Cytochrome P450 3A4, sequence (P08684 whole entry): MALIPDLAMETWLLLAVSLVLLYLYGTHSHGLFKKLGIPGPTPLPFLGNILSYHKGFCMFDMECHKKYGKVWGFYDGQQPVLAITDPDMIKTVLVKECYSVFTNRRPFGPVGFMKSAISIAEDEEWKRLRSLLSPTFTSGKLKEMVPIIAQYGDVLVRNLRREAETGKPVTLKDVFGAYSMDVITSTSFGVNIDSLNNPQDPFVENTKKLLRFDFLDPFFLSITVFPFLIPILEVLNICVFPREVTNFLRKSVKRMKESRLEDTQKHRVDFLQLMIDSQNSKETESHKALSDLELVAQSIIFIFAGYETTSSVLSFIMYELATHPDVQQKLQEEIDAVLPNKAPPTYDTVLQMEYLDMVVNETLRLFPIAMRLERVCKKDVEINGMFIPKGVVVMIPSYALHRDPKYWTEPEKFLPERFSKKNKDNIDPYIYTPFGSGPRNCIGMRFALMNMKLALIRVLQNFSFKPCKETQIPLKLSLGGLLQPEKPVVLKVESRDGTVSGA
Cytochrome P450 2C19, sequence (P33261 whole entry): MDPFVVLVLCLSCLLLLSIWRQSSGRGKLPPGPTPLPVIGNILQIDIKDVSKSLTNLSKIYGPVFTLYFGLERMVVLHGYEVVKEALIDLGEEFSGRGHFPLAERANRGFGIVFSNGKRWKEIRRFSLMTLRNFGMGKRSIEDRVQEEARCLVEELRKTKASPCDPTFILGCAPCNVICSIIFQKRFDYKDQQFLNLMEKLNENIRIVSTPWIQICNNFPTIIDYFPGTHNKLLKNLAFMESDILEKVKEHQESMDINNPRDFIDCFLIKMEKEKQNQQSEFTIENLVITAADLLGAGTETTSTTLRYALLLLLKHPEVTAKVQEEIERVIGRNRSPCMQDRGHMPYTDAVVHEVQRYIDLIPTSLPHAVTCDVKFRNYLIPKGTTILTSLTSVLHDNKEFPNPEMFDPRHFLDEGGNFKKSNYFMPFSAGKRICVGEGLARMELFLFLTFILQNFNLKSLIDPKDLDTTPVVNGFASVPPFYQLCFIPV
Cytochrome P450 2D6, sequence (P10635 whole entry): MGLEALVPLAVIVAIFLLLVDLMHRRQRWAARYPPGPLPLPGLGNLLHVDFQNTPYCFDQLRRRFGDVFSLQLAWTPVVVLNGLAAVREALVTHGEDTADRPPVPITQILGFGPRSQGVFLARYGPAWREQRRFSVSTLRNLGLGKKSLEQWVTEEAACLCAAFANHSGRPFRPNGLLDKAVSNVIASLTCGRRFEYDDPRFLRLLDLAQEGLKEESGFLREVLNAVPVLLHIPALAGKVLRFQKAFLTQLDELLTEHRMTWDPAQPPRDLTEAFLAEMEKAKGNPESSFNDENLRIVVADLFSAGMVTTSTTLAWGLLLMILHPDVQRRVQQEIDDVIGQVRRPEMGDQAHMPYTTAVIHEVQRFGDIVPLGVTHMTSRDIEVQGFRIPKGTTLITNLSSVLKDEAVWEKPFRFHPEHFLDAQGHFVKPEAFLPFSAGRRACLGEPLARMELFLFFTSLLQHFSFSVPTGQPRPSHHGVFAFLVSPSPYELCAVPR
Cytochrome P450 2C9, sequence (P11712 whole entry): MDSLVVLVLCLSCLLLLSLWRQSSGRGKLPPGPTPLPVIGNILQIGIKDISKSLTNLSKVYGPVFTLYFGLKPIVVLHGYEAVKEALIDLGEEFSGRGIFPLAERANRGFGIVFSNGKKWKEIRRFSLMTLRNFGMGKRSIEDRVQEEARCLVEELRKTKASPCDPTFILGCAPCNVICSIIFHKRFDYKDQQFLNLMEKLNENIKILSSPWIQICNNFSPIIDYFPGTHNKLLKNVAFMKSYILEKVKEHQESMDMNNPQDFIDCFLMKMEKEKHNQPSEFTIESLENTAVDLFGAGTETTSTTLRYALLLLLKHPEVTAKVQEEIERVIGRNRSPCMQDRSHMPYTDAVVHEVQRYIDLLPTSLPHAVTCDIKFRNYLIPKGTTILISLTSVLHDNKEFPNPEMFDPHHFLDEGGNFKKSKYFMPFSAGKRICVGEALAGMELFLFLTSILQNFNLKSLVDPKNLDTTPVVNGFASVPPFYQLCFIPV

| SMILES | chromatographic logD [2] | chromatographic logD [3] | microsomal CLint [4] [µL/min/mg] | solubility kinetic [5] [µg/mL] | half-life [9] [h] | half-life [10] [h] | IC50 [11] | IC50 [11, 41] [nM] | microsomal CLint [13] [µL/min/mg] | IC90 [18] | microsomal CLint [19] [µL/min/mg] | fraction unbound [21] | fraction unbound [22] | IC50 ([23]; Trypanosoma brucei, ATCC 30027) [nM] | half-life [24] [h] | CLhep predicted [27] [mL/min/kg] | PCR cure rate [17] [%] | Parasitemia clearance after immunosuppression [17] [%] | Parasitemia clearance after treatment [17] [%] | IC50 [20] [nM] | also measured |
| --- | --- | --- | --- | --- | --- | --- | --- | --- | --- | --- | --- | --- | --- | --- | --- | --- | --- | --- | --- | --- | --- |
| CC(=O)N(Cc1cccnc1)c1ccc(-c2nc3ccccc3s2)cc1 | 2.18 | > 3.94 | 98.3 | 71 (≈ 198 µM) | 0.293 | – | – | – | – | – | – | – | – | – | – | – | – | – | – | – | CLint in vitro [1]: 72 µL/min/mg; solubility kinetic [6]: 11.9 µg/mL (≈ 33 µM); EH [7]: 0.74 none; t (1 / 2) [8]: 24 min |
| CO/N=C(\C)c1ccc(-n2ccnc2)c(NC(=O)c2cnn(-c3ccccn3)c2)c1 | – | – | 16 | – | 1.8 | 0.35 | 6 nM | 6.7 | 27 | 14 nM | 83 | 0.022 | 0.008 | – | 1.07 | 34.3 | 0 | 0 | 80 | > 100000 | hepatic extraction ratio [32]: 0.51; PCR cure rate [33]: 0%; Parasitemia clearance after immunosuppression [33]: 0%; Parasitemia clearance after treatment [33]: 20%; hepatic extraction ratio [34]: 0.47; IC90 [18, 41]: 16 nM; hepatic extraction ratio [35]: 0.38; PCR cure rate [36]: 0%; Parasitemia clearance after immunosuppression [36]: 0%; Parasitemia clearance after treatment [36]: 0%; hepatic extraction ratio [37]: 0.78; IC50 [38]: 1400 nM |

The next lines start with results.

| chromatographic logD [2] | chromatographic logD [3] | microsomal CLint [4] [µL/min/mg] | solubility kinetic [5] [µg/mL] | half-life [9] [h] | half-life [10] [h] | IC50 [11] | IC50 [11, 41] [nM] | microsomal CLint [13] [µL/min/mg] | IC90 [18] | microsomal CLint [19] [µL/min/mg] | fraction unbound [21] | fraction unbound [22] | IC50 ([23]; Trypanosoma brucei, ATCC 30027) [nM] | half-life [24] [h] | CLhep predicted [27] [mL/min/kg] | SMILES | PCR cure rate [17] [%] | Parasitemia clearance after immunosuppression [17] [%] | Parasitemia clearance after treatment [17] [%] | IC50 [20] [nM] | also measured |
| --- | --- | --- | --- | --- | --- | --- | --- | --- | --- | --- | --- | --- | --- | --- | --- | --- | --- | --- | --- | --- | --- |
| 2.1 | 2.8 | 11 | > 100 | 2.53 | 0.933 | 11.5 nM and 6.8 nM and 7 nM | 6 | 24 | 20.5 nM and 47 nM and > 100 nM | 31 | 0.064 | 0.043 | > 10000 | 1.22 | 17.2 | N#Cc1ccc(-n2ccnc2)c(NC(=O)c2cnc(-c3ccccc3)s2)c1 | 0 | 0 | 100 | > 100000 | CLblood [12]: 25 mL/min/kg; IC50 [14]: > 20000 nM; IC50 [15]: 15900 nM; Papp A→B [16]: 82 ×10⁻⁶ cm/s; IC50 [25]: > 20000 nM; IC50 [26]: 2700 nM |
| – | – | – | – | – | – | 853 nM and 3660 nM and 1930 nM | – | – | 5670 nM and > 1000 nM and 8200 nM | – | – | – | – | – | – | CN1CCC(NCC(O)COc2ccc3cc(Br)ccc3c2)CC1 (configuration not stated) | – | – | – | – | IC50 [28]: 426 nM and 198 nM and 500 nM; MSD [29]: 7 days; IC50 [23]: 28 nM and 74.5 nM and 57 nM; IC50 [30]: 53 nM; % inhibition in bone-marrow [31]: 41.4%; % inhibition in liver [31]: 26.8%; % inhibition in spleen [31]: 44.9% |
| – | – | 11 | – | 2.67 | – | – | 3 | – | – | – | – | – | > 10000 | – | – | CCOC(=O)c1ccc(-n2ccnc2)c(NC(=O)c2cnc(-c3ccccc3)nc2)c1 | – | – | – | > 100000 | IC90 [18, 41]: 37 nM; hepatic extraction ratio [35]: 0.38; remaining at 4 h [39]: 0.4%; remaining at 4 h [40]: 1.8%; IC50 [38]: > 20000 nM |

From ChEMBL document CHEMBL2448688, “Selection and optimization of hits from a high-throughput phenotypic screen against Trypanosoma cruzi. Exported from HEOS 25-Oct-2013. See also related datasets CHEMBL3137440 and CHEMBL3137386”
